A short description of data set [1]: Calcium tolerance (Ca^2+ from CaCl2 until sustained precipitate). The format is physicochemical. Conditions: ppm of Ca^2+ from CaCl2 where sustained precipitate is noted; for Calcium Tolerance: Table 2; for Ca^2+ Tolerance: Table 3. The procedure: (§1) Synthesized surfactants including the structure depicted in Experimental Structure 1, as well as the corresponding Na, Li, NH4, and Mg surfactants, were tested to determine surfactant properties. These included the time required for the surfactant solution to wet cotton fabric, the amount of foam the surfactant generates when agitated, the tolerance of the surfactant to calcium ions in solution as a measure of surfactant performance in hard water, and the temperature below which the surfactant forms a solid precipitate, known as the Krafft Point.

Data set [2] can be described thus: Solubility in deionized water at 20° C. The format is physicochemical.
Data set [3] can be described thus: Surface tension at critical micelle concentration. The format is physicochemical.
A short description of a further data set: Krafft point. Type of data set: physicochemical. The procedure:
as §1

The nature of data set [4]: Critical micelle concentration (CMC). Type of data set: physicochemical.
For data set [5] the following is noted: water; common sodium surfactants; cited from earlier work.
Data set [6] can be described thus: Stability tracking of oleo-furan sulfonic acid by liquid chromatography. The format is physicochemical. Conditions: 8-week time course, room temperature and elevated temperature (42° C.). The text has this: Another advantage of surfactant embodiments disclosed herein is their inherent stability, particularly in the acid form prior to neutralization (oleo-furan sulfonic acids). As noted elsewhere herein, structural stability is an issue in the production of the common anionic surfactant SLES, causing occasional ring closure of the labile ethoxy chain during ethoxylation and sulfation step, which leads to the formation of a carcinogenic byproduct (e.g., 1,4-dioxane).
The calcium and magnesium monoanionic surfactants were both observed to have high foaming and foam stability, which is attractive for a number of applications including home cleaning, personal care, detergents, cosmetics, ore floatation and oil recovery. […] Stability of the oleo-furan surfactant, specifically the acid form oleo-furan sulfonic acid that is a precursor to the calcium and other cation surfactants, was measured over an eight week time course at room temperature and elevated temperatures, the results of which can be seen in FIG. 1.

In brackets after ≈: the same amount, converted by molar mass. Where two headings read alike, the source gives them in different places. Marks after values point to notes of the source that are not given here.

In the case of `CCCCCCCCCCCCOCCOCCOCCOS(=O)(=O)[O-].[Na+]` [SLES, sodium lauryl ether sulfate, reference compound], the “Calcium Tolerance” value in data set [1] was >50,000 ppm. Besides, the Solubility (in general, the concentration that dissolves in the medium under given conditions) in data set [2] (Table 2) was not below 1000 mg/mL. Also, in data set [3] (Table 2), the “Surface Tension at critical micelle concentration” value came out at 32 mN/m. Besides, the “Krafft Point” value in “Krafft point” (Table 2) was less than 0 °C. Further, the “CMC (critical micelle concentration)” value in data set [4] (Table 2) is recorded as 449 ppm.

For the molecule `CCCCCCCCCCCC(=O)c1cc(S(=O)(=O)O)c(C)o1` [Ca^2+], the “Calcium Tolerance” value in data set [1] is on record as >50,000 ppm. For the same molecule, the Solubility in data set [2] (Table 2, read-out: Solubility) stood at 350 mg/mL (≈ 1020 mM). In data set [3] (Table 2), the “Surface Tension at critical micelle concentration” value is reported as 33 mN/m. In addition, the “Krafft Point” value in “Krafft point” (Table 2) was less than 0 °C. The “CMC (critical micelle concentration)” value in data set [4] (Table 2) was found to be 300 ppm.

With sodium dodecylbenzene sulfonate, the Solubility in data set [5] is 250 mg/mL.

For the molecule `CCCCCCCCCCCC(=O)c1cc(S(=O)(=O)O)c(C)o1` [oleo-furan sulfonic acids], the “degradation or byproduct formation by liquid chromatography” value in data set [6] is recorded as “negligible degradation or byproduct formation”.

Regarding `CCCCCCCCCCCC(=O)c1ccc(S(=O)(=O)[O-])o1.[Na+]` [Na^+ OFS-12-1/0], in data set [1], the “Ca^2+ Tolerance” value is >50,000 ppm. In addition, in data set [3] (Table 3), the “Surface Tension at critical micelle concentration” value came to 44 mN/m. Also, in the data set “Krafft point” (Table 3), the “Krafft Point” value was less than 0 °C. Further, the “CMC (critical micelle concentration)” value in data set [4] (Table 3) came to 1735 ppm.

For `CCCCCCCCCCCC(=O)c1cc(S(=O)(=O)[O-])c(C)o1.[Na+]` [Na^+], in data set [1], the “Calcium Tolerance” value was >50,000 ppm. Besides, in data set [1], the “Ca^2+ Tolerance” value is >50,000 ppm. In addition, the “Surface Tension at critical micelle concentration” value in data set [3] (Table 2) and in data set [3] (Table 3) was 42 mN/m in each case. In addition, the “Krafft Point” value in the data set “Krafft point” (Table 2) and in the data set “Krafft point” (Table 3) was less than 0 °C throughout. In addition, the “CMC (critical micelle concentration)” value in data set [4] (Table 2) and in data set [4] (Table 3) was 1480 ppm each time.

With `CCCCCCCCCCCC(=O)c1cc(S(=O)(=O)O)c(C)o1.N` [NH4^+], the “Calcium Tolerance” value in data set [1] is given as >50,000 ppm. In data set [2] (Table 2), this molecule returned a Solubility of 1000 mg/mL. Also, the “Surface Tension at critical micelle concentration” value in data set [3] (Table 2) was determined as 39 mN/m. In addition, in “Krafft point” (Table 2), the “Krafft Point” value is less than 0 °C. Moreover, the “CMC (critical micelle concentration)” value in data set [4] (Table 2) worked out at 3309 ppm.

For `CCCCCCCCCCCC(=O)c1cc(S(=O)(=O)[O-])c(C)o1.CCCCCCCCCCCC(=O)c1cc(S(=O)(=O)[O-])c(C)o1.[Mg+2]` [Mg^2+], the “Calcium Tolerance” value in data set [1] is >50,000 ppm. Also, in data set [2] (Table 2), the Solubility turned out to be 10 mg/mL. Further, in data set [3] (Table 2, recorded for saturated surfactant solution at 20° C.), the “Surface Tension” value was 38* mN/m. For the same molecule, the “Krafft Point” value in “Krafft point” (Table 2) was found to be 20 °C.

On to `CCCCCCCCCCCC(=O)c1cc(S(=O)(=O)[O-])c(C)o1.[Li+]` [Li^+], for which the “Calcium Tolerance” value in data set [1] is >50,000 ppm. In data set [2] (Table 2), this molecule returned a Solubility of 300 mg/mL. The “Surface Tension at critical micelle concentration” value in data set [3] (Table 2) was found to be 45 mN/m. Also, the “Krafft Point” value in the data set “Krafft point” (Table 2) is less than 0 °C. Besides, the “CMC (critical micelle concentration)” value in data set [4] (Table 2) is 1347 ppm.

The values above are taken from US11492338B2, “Furan surfactant compositions and methods” (SIRONIX RENEWABLES, INC., priority 2020, dated 2022).
